Tests used:
[1] = biological target: T1, recombinant human FLAP protein (Homo sapiens, UniProt P20292); assay: FLAP binding assay (Scintillation Proximity Assay, displacement of [125I]L-691,831); details: recombinant human FLAP membranes, [125I]L-691,831 probe; read-out: FLAP SPA IC50
T1 construct: made in house; host or cells: Sf9 insect cells (100,000 x g membrane fraction)
T1 sequence (P20292 1-161): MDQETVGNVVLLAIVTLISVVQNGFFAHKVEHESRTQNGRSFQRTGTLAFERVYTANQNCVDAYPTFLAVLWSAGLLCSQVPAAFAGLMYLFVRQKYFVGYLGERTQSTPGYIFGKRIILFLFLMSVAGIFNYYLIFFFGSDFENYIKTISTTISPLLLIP
Outline: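 WGA scintillation proximity beads were stirred 1 h with 5 μg of FLAP-containing membrane protein. The membranes came from baculovirus Sf9 cells, Dounce-lysed and spun to a 100,000×g pellet in buffer at pH 7.5.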

[2] = tested on: synthesis of LTB4 in human whole blood; assay: human whole blood LTB4 production inhibition assay; assay type: cell-based; details: Homo sapiens, heparinized human whole blood, calcimycin 20 μM; read-out: hWB LTB4 IC50
Outline: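 Heparinized human whole blood was preincubated with compound for 15 min at 37° C, then stimulated with calcimycin (20 μM final, in PBS pH 7.4) for a further 30 min at 37° C. Plasma LTB4 was quantified by antibody-based homogeneous time-resolved fluorescence.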

SMILES | IC50 [1] [nM] | IC50 [2] [nM]
Nc1ncc(-c2ccc(C3(c4noc(N5CCCC5=O)n4)CCC3)cc2)cn1 [Example 26, 1-(3-{1-[4-(2-Amino-pyrimidin-5-yl)-phenyl]-cyclobutyl}-1,2,4-oxadiazol-5-yl)-pyrrolidin-2-one] | 160 | 1600
Nc1ncc(-c2ccc(C3(c4noc(NCCO)n4)CCC3)cc2)cn1 [Example 74, 2-(3-{1-[4-(2-amino-pyrimidin-5-yl)-phenyl]-cyclobutyl}-1,2,4-oxadiazol-5-ylamino)-ethanol] | 71 | 520
Cc1cc(C)c(-c2nc(C3(c4ccc(-c5cnc(N)nc5)cc4)CCC3)no2)c(=O)[nH]1 [Example 58, 3-(3-{1-[4-(2-Amino-pyrimidin-5-yl)-phenyl]-cyclobutyl}-1,2,4-oxadiazol-5-yl)-4,6-dimethyl-1H-pyridin-2-one] | 2 | > 5000
Nc1ncc(-c2ccc(C3(c4noc(-c5cnc(N6CC(O)C6)cn5)n4)CCC3)cc2)cn1 [Example 86, 1-[5-(3-{1-[4-(2-Amino-pyrimidin-5-yl)-phenyl]-cyclobutyl}-1,2,4-oxadiazol-5-yl)-pyrazin-2-yl]-azetidin-3-ol] | 1.2 | 79
CSCCn1cc(-c2nc(C3(c4ccc(-c5cnc(N)nc5)cc4)CCC3)no2)cn1 [Example 230, 5-[4-(1-{5-[1-(2-Methylsulfanyl-ethyl)-1H-pyrazol-4-yl]-[1,2,4]oxadiazol-3-yl}-cyclobutyl)-phenyl]-pyrimidin-2-ylamine] | 1.3 | 64
N#CC1CCN(c2nc(C3(c4ccc(-c5cnc(N)nc5)cc4)CCC3)no2)CC1 [Example 291, 1-(3-{1-[4-(2-Amino-pyrimidin-5-yl)-phenyl]-cyclobutyl}-[1,2,4]oxadiazol-5-yl)-piperidine-4-carbonitrile] | 19 | 210
Nc1ncc(-c2ccc(C3(c4noc(-c5cnn(CC(=O)NC6CCNCC6)c5)n4)CCC3)cc2)cn1 [Example 237, 2-[4-(3-{1-[4-(2-Amino-pyrimidin-5-yl)-phenyl]-cyclobutyl}-[1,2,4]oxadiazol-5-yl)-pyrazol-1-yl]-N-piperidin-4-yl-acetamide] | 2 | > 5000
Nc1ncc(-c2ccc(C3(c4noc(-c5ccccc5)n4)CCOCC3)cc2)cn1 [Example 149, 5-{4-[4-(5-Phenyl-1,2,4-oxadiazol-3-yl)-tetrahydro-pyran-yl]-phenyl}-pyrimidin-2-ylamine] | 15 | > 5000
Cn1cc(-c2nc(C3(c4ccc(-c5cnc(N)cn5)cc4)CCC3)no2)cn1 [Example 220, 5-(4-{1-[5-(1-Methyl-1H-pyrazol-4-yl)-[1,2,4]oxadiazol-3-yl]-cyclobutyl}-phenyl)-pyrazin-2-ylamine] | 0.7 | 16
Nc1ncc(-c2ccc(C3(c4noc(-c5cnc(N6CCNC(=O)C6)cn5)n4)CCC3)cc2)cn1 [Example 201, 5′-(3-{1-[4-(2-Amino-pyrimidin-5-yl)-phenyl]-cyclobutyl}-1,2,4-oxadiazol-5-yl)-5,6-dihydro-4H-1,2′-bipyrazinyl-3-one] | 2.3 | 400
Cc1cc(-c2nc(C3(c4ccc(-c5cnc(N)nc5)cc4)CCC3)no2)[nH]n1 [Example 5, 5-(4-{1-[5-(5-Methyl-2H-pyrazol-3-yl)-1,2,4-oxadiazol-3-yl]-cyclobutyl}-phenyl)-pyrimdin-2-ylamine] | 2.4 | > 5000
CC(C)N1CCN(C(=O)Cn2cc(-c3nc(C4(c5ccc(-c6cnc(N)nc6)cc5)CCC4)no3)cn2)CC1 [Example 243, 2-[4-(3-{1-[4-(2-Amino-pyrimidin-5-yl)-phenyl]-cyclobutyl}-[1,2,4]oxadiazol-5-yl)-pyrazol-1-yl]-1-(4-isopropyl-piperazin-1-yl)-ethanone] | 8.5 | 200
CN1CCCCC1c1nc(C2(c3ccc(-c4cnc(N)nc4)cc3)CCC2)no1 (centres unmarked) [Example 280, 5-(4-{1-[5-(1-Methyl-piperidin-2-yl)-[1,2,4]oxadiazol-3-yl]-cyclobutyl}-phenyl)-pyrimidin-2-ylamine] | 17 | 1400
CC(C)(O)Cc1nc(C2(c3ccc(-c4cnc(N)nc4)cc3)CCC2)no1 [Example 278, 1-(3-{1-[4-(2-Amino-pyrimidin-5-yl)-phenyl]-cyclobutyl}-[1,2,4]oxadiazol-5-yl)-2-methyl-propan-2-ol] | 78 | 1700
Nc1ncc(-c2ccc(C3(c4noc(COCc5ccccc5)n4)CCOCC3)cc2)cn1 [Example 151, 5-{4-[4-(5-Benzyloxymethyl-1,2,4-oxadiazol-3-yl)-tetrahydro-pyran-4-yl]-phenyl}-pyrimidin-2-ylamine] | 210 | > 5000
CCNc1nc(C2(c3ccc(-c4cnc(N)nc4)cc3)CCC2)no1 [Example 24, 5-{4-[1-(5-Ethylamino-1,2,4-oxadiazol-3-yl)-cyclobutyl]-phenyl}-pyrimidin-2-ylamine] | 11 | 460

More lines, now with the values ahead:

IC50 [1] [nM] | IC50 [2] [nM] | SMILES
2.1 | 180 | NC(=O)c1ccc(-c2nc(C3(c4ccc(-c5cnc(N)nc5)cc4)CCC3)no2)cn1 [Example 17, 5-(3-{1-[4-(2-Amino-pyrimidin-5-yl)-phenyl]-cyclobutyl}-1,2,4-oxadiazol-5-yl)-pyridine-2-carboxylic acid amide]
8.4 | 330 | COC(=O)c1cnc(-c2nc(C3(c4ccc(-c5cnc(N)nc5)cc4)CCC3)no2)cn1 [Example 1, 5-(3-{1-[4-(2-amino-pyrimidin-5-yl)-phenyl]-cyclobutyl}-1,2,4-oxadiazol-5-yl)-pyrazine-2-carboxylic acid methyl ester]
1.2 | 62 | CN(CCO)c1ccc(-c2nc(C3(c4ccc(-c5cnc(N)nc5)cc4)CCC3)no2)cn1 [Example 181, 2-{[5-(3-{1-[4-(2-Amino-pyrimidin-5-yl)-phenyl]-cyclobutyl}-1,2,4-oxadiazol-5-yl)-pyridin-2-yl]-methyl-amino}-ethanol]
2.2 | 250 | Nc1ncc(-c2ccc(C3(c4noc(-c5cccnc5)n4)CCC3)cc2)cn1 [Example 143, 5-{4-[1-(5-pyridin-3-yl-1,2,4-oxadiazol-3-yl)-cyclobutyl]-phenyl}-pyrimidin-2-ylamine]
12 | 800 | CS(=O)(=O)c1cccc(-c2nc(C3(c4ccc(-c5cnc(N)nc5)cc4)CCC3)no2)c1 [Example 39, 5-(4-{1-[5-(3-Methanesulfonyl-phenyl)-1,2,4-oxadiazol-3-yl]-cyclobutyl}-phenyl)-pyrimidin-2-ylamine]
3.2 | 230 | Nc1ncc(-c2ccc(C3(c4noc(-c5cccc(O)c5)n4)CCC3)cc2)cn1 [Example 43, 3-(3-{1-[4-(2-Amino-pyrimidin-5-yl)-phenyl]-cyclobutyl}-1,2,4-oxadiazol-5-yl)-phenol]
5.7 | 360 | Nc1ncc(-c2ccc(C3(c4noc(-c5cnccn5)n4)CCC3)cc2)cn1 [Example 158, 5-{4-[1-(5-Pyrazin-2-yl-1,2,4-oxadiazol-3-yl)-cyclobutyl]-phenyl}-pyrimidin-2-ylamine]
4 | 450 | Cc1nocc1-c1nc(C2(c3ccc(-c4cnc(N)nc4)cc3)CCC2)no1 [Example 163, 5-(4-{1-[5-(3-Methyl-isoxazol-4-yl)-1,2,4-oxadiazol-3-yl]-cyclobutyl}-phenyl)-pyrimidin-2-ylamine]
3.1 | 75 | Nc1ncc(-c2ccc(C3(c4noc(-c5ccc(O)cc5)n4)CCC3)cc2)cn1 [Example 44, 4-(3-{1-[4-(2-Amino-pyrimidin-5-yl)-phenyl]-cyclobutyl}-1,2,4-oxadiazol-5-yl)-phenol]
4 | 110 | CC(O)Cn1cc(-c2nc(C3(c4ccc(-c5cnc(N)nc5)cc4)CCC3)no2)cn1 (centres unmarked) [Example 83, 1-[4-(3-{1-[4-(2-Amino-pyrimidin-5-yl)-phenyl]-cyclobutyl}-1,2,4-oxadiazol-5-yl)-pyrazol-1-yl]-propan-2-ol]
4.2 | 73 | Cn1cnc(-c2nc(C3(c4ccc(-c5cnc(N)nc5)cc4)CCC3)no2)c1 [Example 23]
2.9 | 92 | COCCNc1cc(-c2nc(C3(c4ccc(-c5cnc(N)nc5)cc4)CCC3)no2)ccn1 [Example 97, 5-[4-(1-{5-[2-(2-Methoxy-ethylamino)-pyridin-4-yl]-1,2,4-oxadiazol-3-yl}-cyclobutyl)-phenyl]-pyrimidin-2-ylamine]
13 | 2700 | Nc1ncc(-c2ccc(C3(c4noc(-c5nc[nH]n5)n4)CCC3)cc2)cn1 [Example 96, 5-(4-{1-[5-(1H-1,2,4-Triazol-3-yl)-1,2,4-oxadiazol-3-yl]-cyclobutyl}-phenyl)-pyrimidin-2-ylamine]
8.1 | 930 | N#Cc1cccc(-c2nc(C3(c4ccc(-c5cnc(N)nc5)cc4)CCC3)no2)c1 [Example 41, 3-(3-{1-[4-(2-Amino-pyrimidin-5-yl)-phenyl]-cyclobutyl}-1,2,4-oxadiazol-5-yl)-benzonitrile]
4.7 | 2100 | Nc1ncc(-c2ccc(C3(c4noc(-c5c[nH]nn5)n4)CCC3)cc2)cn1 [Example 40, 5-(4-{1-[5-(1H-1,2,3-Triazol-4-yl)-1,2,4-oxadiazol-3-yl]-cyclobutyl}-phenyl)-pyrimidin-2-ylamine]

From patent publication US8580829B2 (Boehringer Ingelheim International GmbH, priority 2010, dated 2013)
